# Measurements reported in patent publication US6201006A, “Aromatic amidine derivatives useful as selective thrombin inhibitors” (C & C Research Laboratories, priority 1996, dated 2001).
# Legend:
# human thrombin = biological target: T1, human thrombin (Homo sapiens, UniProt P00734); test: Inhibitory activity for thrombin (chromogenic substrate hydrolysis, 405 nm); type: biochemical; conditions: for Selectivity (trypsin/thrombin): IC50 for trypsin divided by IC50 for thrombin; for IC50: human thrombin, 20 min, pH 8.0, N-benzoyl-Phe-Val-Arg-p-nitroanilide
# T1 construct: purchased Sigma T-6759
# Description: 20 μl of each compound of the present invention was dissolved in 50% methanol in various concentrations and then added to each well of a microplate, to each of which 160 μl of the reaction medium containing 125 mM NaCl, 50 mM Tris-HCl (pH 8.0) and 2 mM synthetic substrate (N-benzoyl-Phe-Val-Arg-p-nitroanilide, Sigma B-7632) were added. 20 μl of human thrombin solution (5 units/ml, Sigma T-6759, manufactured by Sigma Co.) containing 0.1% bovine serum albumin was added to each well to initiate the enzymatic reaction. After 20 minutes, the hydrolysis of substrate was determined by measuring the absorbance at 405 nm. […] The selectivity index was calculated by dividing the IC50 value for trypsin by the IC50 value for thrombin. The thrombin inhibitory activity and the trypsin inhibitory activity for the compound of the present invention are shown in the following Table 2.
# trypsin = test: Inhibitory activity for trypsin; type: biochemical
Selectivity (trypsin/thrombin) (human thrombin),IC50 (human thrombin),IC50 (trypsin),Structure (SMILES)
75.2,5.46 nM,410 nM,"CCn1c(CC[C@@H]2CCCN2C(=O)[C@H]2CCCN2C(=O)[C@H](C)N)cc2ccc(C(=N)N)cc21 [Compound 143, 1-ethyl-2-[2-[(S)-1-[[(R)-1-((S)-2-aminopropanoyl)pyrrolidin-2-yl]carbonyl]pyrrolidin-2-yl]ethyl]indole-6-carboxamidine]"
31.8,11 nM,351 nM,"CCn1c(CC[C@@H]2CCCN2C(=O)[C@H]2CCCN2C(=O)CC(C)O)cc2ccc(C(=N)N)cc21 (stereo partly drawn) [Compound 180, 1-ethyl-2-[2-[(S)-1-[[(R)-1-(3-hydroxybutanoyl)pyrrolidin-2-yl]carbonyl]pyrrolidin-2-yl]-ethyl]indole-6-carboxamidine]"
48.6,16.7 nM,811 nM,"CCn1c(CC[C@@H]2CCCN2C(=O)[C@H]2CCCN2C(CCO)C(N)=O)cc2ccc(C(=N)N)cc21 (stereo partly drawn) [Compound 117, 1-ethyl-2-[2-[(S)-1-[[(R)-1-(1-carbamoyl-3-hydroxypropyl)pyrrolidin-2-yl]carbonyl]pyrrolidin-2-yl]-ethyl]indole-6-carboxamidine]"
48.6,9.47 nM,460 nM,CCn1c(CC[C@@H]2CCCN2Cc2c(C(N)=O)sc3ccccc23)cc2ccc(C(=N)N)cc21 [Compound 8]
17.6,18.3 nM,322 nM,"CCn1c(CC[C@@H]2CCCN2C(=O)[C@H]2CCCN2C(=O)C2CCCCN2)cc2ccc(C(=N)N)cc21 (stereo partly drawn) [Compound 167, 1-ethyl-2-[2-[(S)-1-[[(R)-1-[(2-piperidyl)carbonyl]pyrrolidin-2-yl]carbonyl]pyrrolidin-2-yl]ethyl]indole-6-carboxamidine]"
46.6,9.01 nM,420 nM,"CCn1c(CC[C@@H]2CCCN2C(=O)C(c2ccccc2)C2CCCC2)cc2ccc(C(=N)N)cc21 (stereo partly drawn) [Compound 30, 1-ethyl-2-[2-[(S)-1-(2-cyclopentyl-2-phenylacetyl)pyrrolidin-2-yl]ethyl]indole-6-carboxamidine]"
34.7,22.3 nM,775 nM,"CCn1c(CC[C@@H]2CCCN2C(=O)[C@H]2CCCN2C2CCOC2=O)cc2ccc(C(=N)N)cc21 (stereo partly drawn) [Compound 125, 1-ethyl-2-[2-[(S)-1-[[(R)-1-(2-oxo-3-oxolanyl)pyrrolidin-2-yl]carbonyl]pyrrolidin-2-yl]ethyl]indole-6-carboxamidine]"
30.0,10.1 nM,304 nM,"C=CC(=O)N1CCC[C@@H]1C(=O)N1CCC[C@H]1CCc1cc2ccc(C(=N)N)cc2n1CC [Compound 182, 1-ethyl-2-[2-[(S)-1-[((R)-1-prop-2-enoyl-pyrrolidin-2-yl)carbonyl]pyrrolidin-2-yl]ethyl]indole-6-carboxamidine]"
17.4,3 nM,52.2 nM,"CCn1c(CC[C@@H]2CCCN2C(=O)CN(C2CC2)S(C)(=O)=O)cc2ccc(C(=N)N)cc21 [Compound 58, 1-ethyl-2-[2-[(S)-1-[2-[cyclopropyl(methylsulfonyl)amino]acetyl]pyrrolidin-2-yl]ethyl]indole-6-carboxamidine]"
30.2,20.1 nM,608 nM,CCn1c(CC[C@@H]2CCCN2C(=O)Cc2cccc(Cl)c2)cc2ccc(C(=N)N)cc21 [Compound 15]
21.0,22.1 nM,464 nM,"CCn1c(CC[C@@H]2CCCN2C(=O)[C@H]2CCCN2C(=O)[C@H](C)NS(C)(=O)=O)cc2ccc(C(=N)N)cc21 [Compound 146, 1-ethyl-2-[2-[(S)-1-[[(R)-1-[(S)-2-(methanesulfonylamino)propanoyl]pyrrolidin-2-yl]carbonyl]pyrrolidin-2-yl]-ethyl]indole-6-carboxamidine]"
38.6,37.7 nM,–,"CCOC(=O)C(CC)N1CCC[C@@H]1C(=O)N1CCC[C@H]1CCc1cc2ccc(C(=N)N)cc2n1CC (stereo partly drawn) [Compound 110, ethyl 2-[(R)-2-[[(S)-2-[2-(6-amidino-1-ethylindol-2-yl)ethyl]pyrrolidinyl]carbonyl]pyrrolidinyl]butanoate]"
–,9.92 nM,–,"CCn1c(CC[C@@H]2CCCN2C(=O)[C@H]2CCCN2C(=O)CC(N)=O)cc2ccc(C(=N)N)cc21 [Compound 175, 1-ethyl-2-[2-[(S)-1-[[(R)-1-(2-carbamoylacetyl)pyrrolidin-2-yl]carbonyl]pyrrolidin-2-yl]ethyl]indole-6-carboxamidine]"
–,25.3 nM,–,"CCC(N)C(=O)N1CCC[C@@H]1C(=O)N1CCC[C@H]1CCc1cc2ccc(C(=N)N)cc2n1CC (stereo partly drawn) [Compound 144, 1-ethyl-2-[2-[(S)-1-[[(R)-1-(2-aminobutanoyl)pyrrolidin-2-yl]carbonyl]pyrrolidin-2-yl]ethyl]indole-6-carboxamidine]"
–,34.6 nM,–,"CCCC(CCC)C(=O)N1CCC[C@@H]1C(=O)N1CCC[C@H]1CCc1cc2ccc(C(=N)N)cc2n1CC [Compound 173, 1-ethyl-2-[2-[(S)-1-[[(R)-1-(2-propylpentanoyl)pyrrolidin-2-yl]carbonyl]pyrrolidin-2-yl]ethyl]indole-6-carboxamidine]"
49.7,11.7 nM,–,"CCOC(=O)CN(CC(=O)N1CCC[C@H]1CCc1cc2ccc(C(=N)N)cc2n1CC)C1CC1 [Compound 62, ethyl 2-[[2-[(S)-2-[2-(6-amidino-1-ethylindol-2-yl)ethyl]pyrrolidinyl]-2-oxoethyl]cyclopropylamino]acetate]"
–,25.6 nM,–,"CCn1c(CC[C@@H]2CCCN2C(=O)[C@H]2CCC(=O)N2CC(N)=O)cc2ccc(C(=N)N)cc21 [Compound 187, 1-ethyl-2-[2-[(S)-1-[[(R)-1-(carbamoylmethyl)-5-oxo-pyrrolidin-2-yl]carbonyl]pyrrolidin-2-yl]ethyl]indole-6-carboxamidine]"
–,31.7 nM,–,"CCn1c(CC[C@@H]2CCCN2C(=O)C2CCCNC2)cc2ccc(C(=N)N)cc21 (stereo partly drawn) [Compound 194, 1-ethyl-2-[2-[(S)-1-[(3-piperidinyl)carbonyl]pyrrolidin-2-yl]ethyl]indole-6-carboxamidine]"
87.0,51.6 nM,–,"CCOC(=O)CN1CCC[C@@H]1C(=O)N1CCC[C@H]1CCc1cc2ccc(C(=N)N)cc2n1C [Compound 84, ethyl 2-[(R)-2-[[(S)-2-[2-(6-amidino-1-methylindol-2-yl)ethyl]pyrrolidinyl]carbonyl]pyrrolidinyl]acetate]"
–,11.4 nM,–,"CCOC(=O)Cn1c(CC[C@@H]2CCCN2C(=O)[C@H]2CCCN2C(C)=O)cc2ccc(C(=N)N)cc21 [Compound 222, ethyl 2-[2-[2-[(S)-1-[((R)-1-acetylpyrrolidin-2-yl)carbonyl]pyrrolidin-2-yl]ethyl]-6-amidinoindolyl]acetate]"
14.4,37.2 nM,–,"CCOC(=O)C1CCCN1CC(=O)N1CCC[C@H]1CCc1cc2ccc(C(=N)N)cc2n1CC (stereo partly drawn) [Compound 196, ethyl 1-[2-[(S)-2-[2-(6-amidino-1-ethylindol-2-yl)ethyl]pyrrolidinyl]-2-oxoethyl]pyrrolidine-2-carboxylate]"
–,20.3 nM,–,"CCn1c(CC[C@H]2C[C@H](C)CN2C(=O)[C@H]2CCCN2CC(=O)O)cc2ccc(C(=N)N)cc21 [Compound 98, 2-[(R)-2-[[(S)-2-[2-(6-amidino-1-ethylindol-2-yl)ethyl]-(S)-4-methylpyrrolidinyl]carbonyl]pyrrolidinyl]acetic acid]"
14.7,9.29 nM,–,"CCn1c(CC[C@@H]2CCCN2C(=O)[C@H]2CCCN2CCCCCC(=O)O)cc2ccc(C(=N)N)cc21 [Compound 131, 6-[(R)-2-[[(S)-2-[2-(6-amidino-1-ethylindol-2-yl)-ethyl]pyrrolidinyl]carbonyl]pyrrolidinyl]hexanoic acid]"
–,33.2 nM,–,"CCn1c(CC[C@@H]2CCCN2C(=O)C(CC(=O)O)NC2CC2)cc2ccc(C(=N)N)cc21 (stereo partly drawn) [Compound 73, 4-[(S)-2-[2-(6-amidino-1-ethylindol-2-yl)ethyl]pyrrolidinyl]-3-cyclopropylamino-4-oxobutanoic acid]"
–,24.1 nM,–,"CC(=O)N1CCC[C@@H]1C(=O)N1CCC[C@H]1CCc1cc2ccc(C(=N)N)cc2n1CC(N)=O [Compound 224, 2-[2-[(S)-1-[((R)-1-acetylpyrrolidin-2-yl)carbonyl]pyrrolidin-2-yl]ethyl]-1-(carbamoylmethyl)indole-6-carboxamidine]"
–,30.2 nM,–,"CCn1c(CC[C@@H]2CCCN2C(=O)[C@H]2CCCN2C(=O)C2CCNCC2)cc2ccc(C(=N)N)cc21 [Compound 169, 1-ethyl-2-[2-[(S)-1-[[(R)-1-[(4-piperidinyl)carbonyl]pyrrolidin-2-yl]carbonyl]pyrrolidin-2-yl]ethyl]indole-6-carboxamidine]"
–,26.2 nM,–,"CCOC(=O)CCCCN1CCC[C@@H]1C(=O)N1CCC[C@H]1CCc1cc2ccc(C(=N)N)cc2n1CC [Compound 128, ethyl 5-[(R)-2-[[(S)-2-[2-(6-amidino-1-ethylindol-2-yl)ethyl]pyrrolidinyl]carbonyl]pyrrolidinyl]pentanoate]"
–,26.9 nM,–,"CCn1c(CC[C@@H]2CCCN2C(=O)[C@H]2CCCN2C(=O)CC(C)N)cc2ccc(C(=N)N)cc21 (stereo partly drawn) [Compound 157, 1-ethyl-2-[2-[(S)-1-[[(R)-1-(3-amino-butanoyl)pyrrolidin-2-yl]carbonyl]pyrrolidin-2-yl]ethyl]indole-6-carboxamidine]"
